For the test, the target named is T1, TGF-beta receptor type-1 (Homo sapiens) (UniProt P36897).
T1 sequence (whole entry): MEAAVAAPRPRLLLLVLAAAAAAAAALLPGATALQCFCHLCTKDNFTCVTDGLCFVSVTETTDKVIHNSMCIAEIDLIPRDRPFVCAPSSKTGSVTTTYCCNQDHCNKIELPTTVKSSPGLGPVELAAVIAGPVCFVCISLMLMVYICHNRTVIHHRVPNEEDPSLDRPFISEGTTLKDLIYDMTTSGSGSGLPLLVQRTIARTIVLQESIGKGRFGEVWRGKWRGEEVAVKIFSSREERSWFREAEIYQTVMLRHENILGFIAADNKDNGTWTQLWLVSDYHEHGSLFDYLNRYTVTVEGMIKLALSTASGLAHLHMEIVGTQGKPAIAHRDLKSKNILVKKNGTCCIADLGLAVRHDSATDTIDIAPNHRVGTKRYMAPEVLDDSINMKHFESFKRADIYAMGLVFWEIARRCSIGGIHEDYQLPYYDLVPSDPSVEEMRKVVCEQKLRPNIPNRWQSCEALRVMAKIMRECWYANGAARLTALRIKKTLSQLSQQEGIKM
Kind of test: Inhibition of TGF-beta-induced ALK5 in human HaCaT cells assessed as p3TP-luciferase activity. Format: cell-based.

SMILES strings stand for the structures.

This is an account of results in ChEMBL document CHEMBL1143116, “Synthesis and biological evaluation of 5-(pyridin-2-yl)thiazoles as transforming growth factor-beta type1 receptor kinase inhibitors” (Bioorg Med Chem Lett, 2008).

On to `Cc1cccc(-c2sc(NCc3cccc(C(N)=O)c3)nc2-c2ccc3nccnc3c2)n1`, for which the Activity entry was “Dose-dependent effect”.
